In patent US11759462B2, “Spirocyclic compounds as tryptophan hydroxylase inhibitors” (priority 2013, dated 2023) one finds IC50 data, which are given here for 21 molecules.

A value given as a limit tells only on which side of the number the result lay.

The first assay has as its target T1, Recombinant human TPH1 (MBP tagged) (Homo sapiens, UniProt P17752).
T1 construct: cloning full length human TPH1 cDNA in to a bacterial pMAL-c5E expression vector; made in house; host or cells: E. coli BL21 (DE3)
T1 sequence (P17752 1-444): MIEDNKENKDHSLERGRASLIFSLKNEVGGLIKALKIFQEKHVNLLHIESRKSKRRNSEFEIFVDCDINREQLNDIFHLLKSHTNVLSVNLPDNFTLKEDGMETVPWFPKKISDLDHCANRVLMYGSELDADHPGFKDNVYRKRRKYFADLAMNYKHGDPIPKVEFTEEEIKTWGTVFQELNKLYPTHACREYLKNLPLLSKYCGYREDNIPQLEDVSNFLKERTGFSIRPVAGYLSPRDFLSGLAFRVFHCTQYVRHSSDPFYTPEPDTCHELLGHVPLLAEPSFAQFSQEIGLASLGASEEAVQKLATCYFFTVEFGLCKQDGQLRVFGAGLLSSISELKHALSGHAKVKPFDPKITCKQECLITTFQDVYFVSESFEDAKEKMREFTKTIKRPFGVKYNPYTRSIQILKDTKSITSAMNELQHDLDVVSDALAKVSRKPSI
Nature of the assay: TPH1 in vitro inhibition assay (kinetic fluorescence). It is filed as biochemical. The settings on record: TPH1 Range (TPH1 inhibition IC50). The gist of the method: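 Final mix: 15 nM MBP-TPH1, 30 μM Trp, 36 μM 6-methyltetrahydropterin, 25 μM ferrous ammonium sulfate, 50 mM MES pH 7.1, 1% DMSO, room temperature.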
For the molecule `Nc1nc(O[C@H](c2ccc(Cl)cc2-c2cccnc2)C(F)(F)F)cc(N2CCC3(CC2)CN[C@H](C(=O)O)C3)n1` [Example 34bo, (S)-8-(2-amino-6-((R)-1-(4-chloro-2-(pyridin-3-yl)phenyl)-2,2,2-trifluoroethoxy)pyrimidin-4-yl)-2,8-diazaspiro[4.5]decane-3-carboxylic acid], the IC50 lay within 50 to 300 nM.

With `CC(C)(C)c1cccc(-c2cc(Cl)ccc2[C@@H](Oc2cc(N3CCC4(CC3)CN[C@H](C(=O)O)C4)nc(N)n2)C(F)(F)F)c1` [Example 34bq, (S)-8-(2-amino-6-((R)-1-(3′-(tert-butyl)-5-chloro-[1,1′-biphenyl]-2-yl)-2,2,2-trifluoroethoxy)pyrimidin-4-yl)-2,8-diazaspiro[4.5]decane-3-carboxylic acid], the half-inhibitory concentration (IC50) lay within 50 to 300 nM.

Regarding `Nc1nc(O[C@H](c2ccc(Cl)cc2-c2ccc(Cl)cc2)C(F)(F)F)cc(N2CCC3(CC2)CN[C@H](C(=O)O)C3)n1` [Example 34bw, (S)-8-(2-amino-6-((R)-1-(4′,5-dichloro-[1,1′-biphenyl]-2-yl)-2,2,2-trifluoroethoxy)pyrimidin-4-yl)-2,8-diazaspiro[4.5]decane-3-carboxylic acid], the half-maximal inhibitory concentration (IC50) lay in the range of 50 to 300 nM.

As to `Nc1nc(O[C@H](c2ccc(Cl)cc2-c2ccccc2)C(F)(F)F)cc(N2CCC3(CC2)CN[C@H](C(=O)O)C3)n1` [Example 34c, (S)-8-(2-amino-6-((R)-1-(5-chloro-[1,1′-biphenyl]-2-yl)-2,2,2-trifluoroethoxy)pyrimidin-4-yl)-2,8-diazaspiro[4.5]decane-3-carboxylic acid], the concentration for half-maximal inhibition (IC50) was 50 to 300 nM.

Staying with this assay, now noted: read-out: TPH1 Range (TPH1 inhibition IC50).
For `Cc1cc(-c2cc(Cl)ccc2[C@@H](Oc2cc(N3CCC4(CC3)CN[C@H](C(=O)O)C4)nc(N)n2)C(F)(F)F)cc(C(C)(C)C)c1` [Example 34bm, (S)-8-(2-amino-6-((R)-1-(3′-(tert-butyl)-5-chloro-5′-methyl-[1,1′-biphenyl]-2-yl)-2,2,2-trifluoroethoxy)pyrimidin-4-yl)-2,8-diazaspiro[4.5]decane-3-carboxylic acid], the IC50 is 50 to 300 nM.

Turning to `Cc1ccc(-c2cc(Cl)ccc2[C@@H](Oc2cc(N3CCC4(CC3)CN[C@H](C(=O)O)C4)nc(N)n2)C(F)(F)F)cc1F` [Example 34bn, (S)-8-(2-amino-6-((R)-1-(5-chloro-3′-fluoro-4′-methyl-[1,1′-biphenyl]-2-yl)-2,2,2-trifluoroethoxy)pyrimidin-4-yl)-2,8-diazaspiro[4.5]decane-3-carboxylic acid], the IC50 fell in the range of 50 to 300 nM.

Regarding `CCOc1cc(-c2cc(Cl)ccc2[C@@H](Oc2cc(N3CCC4(CC3)CN[C@H](C(=O)O)C4)nc(N)n2)C(F)(F)F)ccc1F` [Example 34bp, (S)-8-(2-amino-6-((R)-1-(5-chloro-3′-ethoxy-4′-fluoro-[1,1′-biphenyl]-2-yl)-2,2,2-trifluoroethoxy)pyrimidin-4-yl)-2,8-diazaspiro[4.5]decane-3-carboxylic acid], the IC50 is under 50 nM.

As for `CC(C)c1cc(-c2cc(Cl)ccc2[C@@H](Oc2cc(N3CCC4(CC3)CN[C@H](C(=O)O)C4)nc(N)n2)C(F)(F)F)ccn1` [Example 34bu, (S)-8-(2-amino-6-((R)-1-(4-chloro-2-(2-isopropylpyridin-4-yl)phenyl)-2,2,2-trifluoroethoxy)pyrimidin-4-yl)-2,8-diazaspiro[4.5]decane-3-carboxylic acid], the IC50 was in the range of 50 to 300 nM.

As to `Nc1nc(O[C@H](c2ccc(Cl)cc2-c2ccc(F)cc2)C(F)(F)F)cc(N2CCC3(CC2)CN[C@H](C(=O)O)C3)n1` [Example 34bv, (S)-8-(2-amino-6-((R)-1-(5-chloro-4′-fluoro-[1,1′-biphenyl]-2-yl)-2,2,2-trifluoroethoxy)pyrimidin-4-yl)-2,8-diazaspiro[4.5]decane-3-carboxylic acid], the half-inhibitory concentration (IC50) lay in the range of 50 to 300 nM.

Turning to `Cc1ccc(-c2cc(Cl)ccc2[C@@H](Oc2cc(N3CCC4(CC3)CN[C@H](C(=O)O)C4)nc(N)n2)C(F)(F)F)cc1` [Example 34bx, (S)-8-(2-amino-6-((R)-1-(5-chloro-4′-methyl-[1,1′-biphenyl]-2-yl)-2,2,2-trifluoroethoxy)pyrimidin-4-yl)-2,8-diazaspiro[4.5]decane-3-carboxylic acid], the IC50 was 50 to 300 nM.

As to `Nc1nc(O[C@H](c2ccc(Cl)cc2C2=CCCCC2)C(F)(F)F)cc(N2CCC3(CC2)CN[C@H](C(=O)O)C3)n1` [Example 34by, (S)-8-(2-amino-6-((R)-1-(5-chloro-2′,3′,4′,5′-tetrahydro-[1,1′-biphenyl]-2-yl)-2,2,2-trifluoroethoxy)pyrimidin-4-yl)-2,8-diazaspiro[4.5]decane-3-carboxylic acid], the IC50 was 50 to 300 nM.

With `Nc1nc(O[C@H](c2ccc(Cl)cc2-c2cccc(C(=O)N3CCCC3)c2)C(F)(F)F)cc(N2CCC3(CC2)CN[C@H](C(=O)O)C3)n1` [Example 34ca, (S)-8-(2-amino-6-((R)-1-(5-chloro-3′-(pyrrolidine-1-carbonyl)-[1,1′-biphenyl]-2-yl)-2,2,2-trifluoroethoxy)pyrimidin-4-yl)-2,8-diazaspiro[4.5]decane-3-carboxylic acid], the IC50 was in the range of 50 to 300 nM.

For the molecule `Nc1nc(O[C@H](c2ccc(Cl)cc2-c2cccc(OC3CCCC3)c2)C(F)(F)F)cc(N2CCC3(CC2)CN[C@H](C(=O)O)C3)n1` [Example 34cb, (S)-8-(2-amino-6-((R)-1-(5-chloro-3′-(cyclopentyloxy)-[1,1′-biphenyl]-2-yl)-2,2,2-trifluoroethoxy)pyrimidin-4-yl)-2,8-diazaspiro[4.5]decane-3-carboxylic acid], the IC50 was 50 to 300 nM.

For the molecule `Nc1nc(O[C@H](c2ccc(Cl)cc2-c2cccc(C(=O)NC3CCC(O)CC3)c2)C(F)(F)F)cc(N2CCC3(CC2)CN[C@H](C(=O)O)C3)n1` (stereo partly drawn) [Example 34cc, (S)-8-(2-amino-6-((R)-1-(5-chloro-3′-(((1R,4R)-4-hydroxycyclohexyl)carbamoyl)-[1,1′-biphenyl]-2-yl)-2,2,2-trifluoroethoxy)pyrimidin-4-yl)-2,8-diazaspiro[4.5]decane-3-carboxylic acid], the half-inhibitory concentration (IC50) was in the range of 50 to 300 nM.

On to `CCc1cccc(-c2cc(Cl)ccc2[C@@H](Oc2cc(N3CCC4(CC3)CN[C@H](C(=O)O)C4)nc(N)n2)C(F)(F)F)c1` [Example 34cd, (S)-8-(2-amino-6-((R)-1-(5-chloro-3′-ethyl-[1,1′-biphenyl]-2-yl)-2,2,2-trifluoroethoxy)pyrimidin-4-yl)-2,8-diazaspiro[4.5]decane-3-carboxylic acid], for which the 50% inhibitory concentration (IC50) was in the range of 50 to 300 nM.

For `Nc1nc(O[C@H](c2ccc(Cl)cc2-c2cccc(C(=O)NCCN3CCCC3)c2)C(F)(F)F)cc(N2CCC3(CC2)CN[C@H](C(=O)O)C3)n1` [Example 34cf, (S)-8-(2-amino-6-((R)-1-(5-chloro-3′-((2-(pyrrolidin-1-yl)ethyl)carbamoyl)-[1,1′-biphenyl]-2-yl)-2,2,2-trifluoroethoxy)pyrimidin-4-yl)-2,8-diazaspiro[4.5]decane-3-carboxylic acid], the half-maximal inhibitory concentration (IC50) lay in the range of 300 to 3000 nM.

In the case of `Nc1nc(O[C@H](c2ccc(Cl)cc2-c2cccc(C(=O)N3CCOCC3)c2)C(F)(F)F)cc(N2CCC3(CC2)CN[C@H](C(=O)O)C3)n1` [Example 34cg, (S)-8-(2-amino-6-((R)-1-(5-chloro-3′-(morpholine-4-carbonyl)-[1,1′-biphenyl]-2-yl)-2,2,2-trifluoroethoxy)pyrimidin-4-yl)-2,8-diazaspiro[4.5]decane-3-carboxylic acid], the half-maximal inhibitory concentration (IC50) is 50 to 300 nM.

`CN1CCN(C(=O)c2cccc(-c3cc(Cl)ccc3[C@@H](Oc3cc(N4CCC5(CC4)CN[C@H](C(=O)O)C5)nc(N)n3)C(F)(F)F)c2)CC1` [Example 34ch, (S)-8-(2-amino-6-((R)-1-(5-chloro-3′-(4-methylpiperazine-1-carbonyl)-[1,1′-biphenyl]-2-yl)-2,2,2-trifluoroethoxy)pyrimidin-4-yl)-2,8-diazaspiro[4.5]decane-3-carboxylic acid]: the IC50 was under 50 nM.

As to `Cc1ncc(-c2cc(Cl)ccc2[C@@H](Oc2cc(N3CCC4(CC3)CN[C@H](C(=O)O)C4)nc(N)n2)C(F)(F)F)s1` [Example 34ci, (S)-8-(2-amino-6-((R)-1-(4-chloro-2-(2-methylthiazol-5-yl)phenyl)-2,2,2-trifluoroethoxy)pyrimidin-4-yl)-2,8-diazaspiro[4.5]decane-3-carboxylic acid], the concentration for half-maximal inhibition (IC50) lay within 50 to 300 nM.

Turning to `Cn1cccc(-c2cc(Cl)ccc2[C@@H](Oc2cc(N3CCC4(CC3)CN[C@H](C(=O)O)C4)nc(N)n2)C(F)(F)F)c1=O` [Example 34cj, (S)-8-(2-amino-6-((R)-1-(4-chloro-2-(1-methyl-2-oxo-1,2-dihydropyridin-3-yl)phenyl)-2,2,2-trifluoroethoxy)pyrimidin-4-yl)-2,8-diazaspiro[4.5]decane-3-carboxylic acid], the half-inhibitory concentration (IC50) lay in the range of 50 to 300 nM.

On to `CNS(=O)(=O)c1cccc(-c2cc(Cl)ccc2[C@@H](Oc2cc(N3CCC4(CC3)CN[C@H](C(=O)O)C4)nc(N)n2)C(F)(F)F)c1` [Example 34ck, (S)-8-(2-amino-6-((R)-1-(5-chloro-3′-(N-methylsulfamoyl)-[1,1′-biphenyl]-2-yl)-2,2,2-trifluoroethoxy)pyrimidin-4-yl)-2,8-diazaspiro[4.5]decane-3-carboxylic acid], for which the concentration for half-maximal inhibition (IC50) fell in the range of 50 to 300 nM.
